Source: the supplement of paper PMC8960247
Counter-ions that a name gives are not always drawn. ± gives the standard error.

What was measured:
621-102 (TSC2-deficient) = assay: relative viability vs DMSO; higher = less cytotoxic; conditions: serum: 10% FBS, 72 h
621-103 (TSC2-rescued) = assay: as above; conditions: serum: 10% FBS, 72 h
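Note: immortalized renal angiomyolipoma cells stably carrying empty vector or TSC2, dosed in 384-well plates in DMEM, viability normalized to vehicle-treated wells within each plate.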

SMILES | relative viability (621-102 (TSC2-deficient); 0.0001 µM) [%] | relative viability (621-102 (TSC2-deficient); 0.001 µM) [%] | relative viability (621-102 (TSC2-deficient); 0.01 µM) [%] | relative viability (621-102 (TSC2-deficient); 0.1 µM) [%] | relative viability (621-102 (TSC2-deficient); 1 µM) [%] | relative viability (621-102 (TSC2-deficient); 10 µM) [%] | relative viability (621-103 (TSC2-rescued); 0.0001 µM) [%] | relative viability (621-103 (TSC2-rescued); 0.001 µM) [%] | relative viability (621-103 (TSC2-rescued); 0.01 µM) [%] | relative viability (621-103 (TSC2-rescued); 0.1 µM) [%] | relative viability (621-103 (TSC2-rescued); 1 µM) [%] | relative viability (621-103 (TSC2-rescued); 10 µM) [%]
Cc1cc(Nc2nc(N[C@@H](C)c3ncc(F)cn3)ncc2Cl)[nH]n1 [AZD1480] | 104 ± 2.1 | 101.7 ± 0.92 | 104 ± 1.7 | 100.8 ± 0.59 | 103 ± 3.8 | 87.7 ± 1.2 | 97.89 ± 0.31 | 89.6 ± 1.1 | 86.7 ± 3.9 | 92.2 ± 2.8 | 89.4 ± 2.6 | 53.6 ± 1.4
Cc1ccc(NC(=O)c2ccc(CN3CCN(C)CC3)cc2)cc1Nc1nc(-c2cccnc2)cs1 [Masitinib (AB1010)] | 116 ± 1.7 | 103 ± 4.6 | 103 ± 6.5 | 115.4 ± 0.45 | 107 ± 2.1 | 53.4 ± 14 | 104.3 ± 0.28 | 105 ± 1.6 | 107.1 ± 0.95 | 103 ± 2.9 | 104 ± 1.3 | 36.5 ± 2.2
CN(C/C=C/C#CC(C)(C)C)Cc1cccc2ccccc12 [Terbinafine HCl] | 96.9 ± 2.1 | 97 ± 1.5 | 92 ± 0.96 | 94.1 ± 2.5 | 101 ± 3 | 91.3 ± 3.5 | 101 ± 3.3 | 99.3 ± 5.4 | 104 ± 2.1 | 101 ± 1.3 | 101 ± 1.3 | 97.22 ± 0.58
CS(=O)(=O)N1CCN(Cc2cc3nc(-c4cccc5[nH]ncc45)nc(N4CCOCC4)c3s2)CC1 [GDC-0941] | 106 ± 1.4 | 114 ± 2.3 | 114.7 ± 0.27 | 111 ± 2.6 | 97 ± 1.1 | 53.69 ± 0.36 | 98.45 ± 0.81 | 100 ± 2.2 | 98.08 ± 0.38 | 97.2 ± 2.3 | 83.3 ± 0.97 | 37.9 ± 0.47
O=C1NC(=O)/C(=C/c2ccc3nccc(-c4ccncc4)c3c2)S1 | 101 ± 3.6 | 106.8 ± 0.82 | 105 ± 5.2 | 97.8 ± 5.1 | 80.5 ± 5 | 32.8 ± 1.8 | 94.69 ± 0.22 | 101.8 ± 0.76 | 107 ± 2 | 101.5 ± 0.46 | 93.69 ± 0.33 | 33.1 ± 0.64
Cn1cc(C2=C(c3cn(C4CCN(Cc5ccccn5)CC4)c4ccccc34)C(=O)NC2=O)c2ccccc21 [Enzastaurin] | 110 ± 3 | 114 ± 1.6 | 107 ± 1.7 | 104 ± 2.2 | 106 ± 4.1 | 98.6 ± 6.9 | 104.1 ± 0.6 | 99.64 ± 0.22 | 102 ± 1.3 | 99.2 ± 0.55 | 102.1 ± 0.61 | 95.6 ± 1.9
COc1ccnc2[nH]cc(C(=O)C(=O)N3CCN(C(=O)c4ccccc4)C[C@H]3C)c12 | 105 ± 6.5 | 106 ± 3.8 | 111 ± 2.5 | 107 ± 2.7 | 86 ± 1.2 | 88.5 ± 5.7 | 112 ± 3.3 | 112 ± 1.2 | 108 ± 1.6 | 103 ± 1.8 | 106 ± 1.2 | 115 ± 1.5
CN(C)Cc1cccc(N/C(=C2\C(=O)Nc3cc(C(N)=O)ccc32)c2ccccc2)c1 | 103 ± 1.7 | 107 ± 0.88 | 104 ± 2 | 103 ± 2.6 | 99.92 ± 0.15 | 87.26 ± 0.14 | 99.8 ± 1.5 | 97.2 ± 1.9 | 99.2 ± 1.1 | 97.28 ± 0.78 | 92.4 ± 6.5 | 84.9 ± 2.5
CC[C@@]1(O)C(=O)OCc2c1cc1n(c2=O)Cc2cc3ccccc3nc2-1 [Camptothecine] | 104.3 ± 0.41 | 106 ± 1.9 | 101 ± 2.4 | 57.8 ± 2.9 | 12 ± 0.68 | 19.5 ± 1.7 | 100.6 ± 0.37 | 100.7 ± 0.47 | 96.3 ± 4.5 | 44.6 ± 2.1 | 10.3 ± 0.36 | 17.79 ± 0.099
